# According to patent US10597388B2, “Pyridazinone herbicides” (FMC CORPORATION, priority 2014, dated 2020):
# Experiments:
# Assay in all cases: Test D controlled growth environment herbicide test, pre- and postemergence
# Type in all cases: in vivo
# [1] = system: field poppy (Papaver rhoeas)
# Method in brief: (§1)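 Species sown in silt loam and sprayed preemergence, or grown in peat-based medium to 2–18 cm (1- to 4-leaf stage) and sprayed postemergence, with compounds in non-phytotoxic solvent plus surfactant. Visual injury scored versus controls after 14–21 d in a controlled environment, 0 (no effect) to 100 (complete control).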
# [2] = system: oilseed rape (Brassica napus)
# Method in brief: as §1
# [3] = system: windgrass (Apera spica-venti)
# Method in brief: as §1
# [4] = system: speedwell (bird's-eye speedwell, Veronica persica)
# Method in brief: as §1
# [5] = system: radish, wild (wild radish, Raphanus raphanistrum)
# Method in brief: as §1
# [6] = system: ryegrass, Italian (Italian ryegrass, Lolium multiflorum)
# Method in brief: as §1
# [7] = system: deadnettle (henbit deadnettle, Lamium amplexicaule)
# Method in brief: as §1
# [8] = system: Russian thistle (Salsola kali)
# Method in brief: as §1
# [9] = system: buckwheat, wild (wild buckwheat, Polygonum convolvulus)
# Method in brief: as §1
# [10] = system: wheat, spring (spring wheat, Triticum aestivum)
# Method in brief: as §1
# [11] = system: canarygrass (Phalaris minor)
# Method in brief: as §1
# [12] = system: barley, spring (spring barley, Hordeum vulgare)
# Method in brief: as §1
# [13] = system: oat, wild (wild oat, Avena fatua)
# Method in brief: as §1
# [14] = Postemergence, 31 g ai/ha, scale 0 to 100 (0 no effect, 100 complete control)
# [15] = Postemergence, 125 g ai/ha, visual rating on scale 0 (no effect) to 100 (complete control), 14 to 21 d
# [16] = Postemergence, 250 g ai/ha, scale 0 to 100 (0 no effect, 100 complete control)
# [17] = Preemergence, 62 g ai/ha, scale 0 to 100 (0 no effect, 100 complete control)
# [18] = Preemergence, 125 g ai/ha, scale 0 to 100 (0 no effect, 100 complete control)
# [19] = Preemergence, 250 g ai/ha, scale 0 to 100, 0 no effect, 100 complete control
# [20] = postemergence, 62 g ai/ha, scale 0 to 100, 0 no effect, 100 complete control
compound,measurement,setting,value
Cc1cc2ccccc2c(-c2c(O)c(C)nn(C)c2=O)c1C [Compound 34],Field Poppy plant response rating,[1]; [14],100
same,"Plant response rating, Field Poppy",[1]; [15],100
same,"Plant response rating, Field Poppy",[1]; [16],100
same,"Plant response rating, Field Poppy",[1]; [17],100
same,"Plant response rating, Field Poppy",[1]; [18],100
same,"Plant response rating, Field Poppy",[1]; [19],100
same,"Plant response rating, Field Poppy",[1]; [20],100
same,Oilseed Rape plant response rating,[2]; [14],65
same,"Plant response rating, Oilseed Rape",[2]; [15],75
same,"Plant response rating, Oilseed Rape",[2]; [16],90
same,"Plant response rating (scale of 0 to 100), Oilseed Rape","[2]; Preemergence, 31 g ai/ha",10
same,"Plant response rating, Oilseed Rape",[2]; [17],55
same,"Plant response rating, Oilseed Rape",[2]; [18],50
same,"Plant response rating, Oilseed Rape",[2]; [19],85
same,"Plant response rating, Oilseed Rape",[2]; [20],70
same,Windgrass plant response rating,[3]; [14],40
same,"Plant response rating, Windgrass",[3]; [15],65
same,"Plant response rating, Windgrass",[3]; [16],75
same,"Plant response rating (scale of 0 to 100), Windgrass","[3]; Preemergence, 31 g ai/ha",15
same,"Plant response rating, Windgrass",[3]; [17],25
same,"Plant response rating, Windgrass",[3]; [18],55
same,"Plant response rating, Windgrass",[3]; [19],70
same,"Plant response rating, Windgrass",[3]; [20],50
same,Speedwell plant response rating,[4]; [14],65
same,"Plant response rating, Speedwell",[4]; [15],100
same,"Plant response rating, Speedwell",[4]; [16],100
same,"Plant response rating (scale of 0 to 100), Speedwell","[4]; Preemergence, 31 g ai/ha",100
same,"Plant response rating, Speedwell",[4]; [17],100
same,"Plant response rating, Speedwell",[4]; [18],100
same,"Plant response rating, Speedwell",[4]; [19],100
same,"Plant response rating, Speedwell",[4]; [20],75
same,"Radish, Wild plant response rating",[5]; [14],65
same,"Plant response rating, Radish, Wild",[5]; [15],90
same,"Plant response rating, Radish, Wild",[5]; [16],95
same,"Plant response rating (scale of 0 to 100), Radish, Wild","[5]; Preemergence, 31 g ai/ha",0
same,"Plant response rating, Radish, Wild",[5]; [17],0
same,"Plant response rating, Radish, Wild",[5]; [18],60
same,"Plant response rating, Radish, Wild",[5]; [19],60
same,"Plant response rating, Radish, Wild",[5]; [20],85
same,"Ryegrass, Italian plant response rating",[6]; [14],90
same,"Plant response rating, Ryegrass, Italian",[6]; [15],95
same,"Plant response rating, Ryegrass, Italian",[6]; [16],95
same,"Plant response rating (scale of 0 to 100), Ryegrass, Italian","[6]; Preemergence, 31 g ai/ha",75
same,"Plant response rating, Ryegrass, Italian",[6]; [17],95
same,"Plant response rating, Ryegrass, Italian",[6]; [18],100
same,"Plant response rating, Ryegrass, Italian",[6]; [19],100
same,"Plant response rating, Ryegrass, Italian",[6]; [20],95
same,Deadnettle plant response rating,[7]; [14],95
same,"Plant response rating, Deadnettle",[7]; [15],100
same,"Plant response rating, Deadnettle",[7]; [16],100
same,"Plant response rating (scale of 0 to 100), Deadnettle","[7]; Preemergence, 31 g ai/ha",0
same,"Plant response rating, Deadnettle",[7]; [17],40
same,"Plant response rating, Deadnettle",[7]; [18],50
same,"Plant response rating, Deadnettle",[7]; [19],95
same,"Plant response rating, Deadnettle",[7]; [20],100
same,Russian Thistle plant response rating,[8]; [14],70
same,"Plant response rating, Russian Thistle",[8]; [15],80
same,"Plant response rating, Russian Thistle",[8]; [16],85
same,"Plant response rating (scale of 0 to 100), Russian Thistle","[8]; Preemergence, 31 g ai/ha",0
same,"Plant response rating, Russian Thistle",[8]; [17],0
same,"Plant response rating, Russian Thistle",[8]; [18],10
same,"Plant response rating, Russian Thistle",[8]; [19],15
same,"Plant response rating, Russian Thistle",[8]; [20],80
same,"Buckwheat, Wild plant response rating",[9]; [14],100
same,"Plant response rating, Buckwheat, Wild",[9]; [15],100
same,"Plant response rating, Buckwheat, Wild",[9]; [16],100
same,"Plant response rating (scale of 0 to 100), Buckwheat, Wild","[9]; Preemergence, 31 g ai/ha",0
same,"Plant response rating, Buckwheat, Wild",[9]; [17],10
same,"Plant response rating, Buckwheat, Wild",[9]; [18],0
same,"Plant response rating, Buckwheat, Wild",[9]; [19],0
same,"Plant response rating, Buckwheat, Wild",[9]; [20],100
same,"Wheat, Spring plant response rating",[10]; [14],0
same,"Plant response rating, Wheat, Spring",[10]; [15],15
same,"Plant response rating, Wheat, Spring",[10]; [16],45
same,"Plant response rating (scale of 0 to 100), Wheat, Spring","[10]; Preemergence, 31 g ai/ha",0
same,"Plant response rating, Wheat, Spring",[10]; [17],0
same,"Plant response rating, Wheat, Spring",[10]; [18],25
same,"Plant response rating, Wheat, Spring",[10]; [19],60
same,"Plant response rating, Wheat, Spring",[10]; [20],10
same,Canarygrass plant response rating,[11]; [14],30
same,"Plant response rating, Canarygrass",[11]; [15],75
same,"Plant response rating, Canarygrass",[11]; [16],85
same,"Plant response rating (scale of 0 to 100), Canarygrass","[11]; Preemergence, 31 g ai/ha",20
same,"Plant response rating, Canarygrass",[11]; [17],50
same,"Plant response rating, Canarygrass",[11]; [18],90
same,"Plant response rating, Canarygrass",[11]; [19],95
same,"Plant response rating, Canarygrass",[11]; [20],65
same,"Plant response rating, Barley, Spring",[12]; [14],0
same,"Plant response rating, Barley, Spring",[12]; [15],0
same,"Plant response rating, Barley, Spring",[12]; [16],5
same,"Plant response rating (scale of 0 to 100), Barley, Spring","[12]; Preemergence, 31 g ai/ha",0
same,"Plant response rating, Barley, Spring",[12]; [17],0
same,"Plant response rating, Barley, Spring",[12]; [18],0
same,"Barley, Spring plant response rating",[12]; [19],20
same,"Plant response rating, Barley, Spring",[12]; [20],0
same,"Oat, Wild plant response rating",[13]; [14],75
same,"Plant response rating, Oat, Wild",[13]; [15],95
same,"Plant response rating, Oat, Wild",[13]; [16],95
same,"Plant response rating (scale of 0 to 100), Oat, Wild","[13]; Preemergence, 31 g ai/ha",70
same,"Plant response rating, Oat, Wild",[13]; [17],75
same,"Plant response rating, Oat, Wild",[13]; [18],85
same,"Plant response rating, Oat, Wild",[13]; [19],90
same,"Plant response rating, Oat, Wild",[13]; [20],85
